Earlier results as cited in paper PMC11336009 (GeroScience, 2024).

Columns and labels:
Details in all cases: cited from earlier work
[1] = test system: rat rotenone model of PD
[2] = test system: diabetic mice after ischemic stroke; set-up: method as in PMID 24821550
[3] = test system: rat 3-nitropropionic acid (3NP) model; set-up: method as in PMID 31728850

Cn1c(=O)cc(N2CCC[C@@H](N)C2)n(Cc2ccccc2C#N)c1=O [alogliptin]
Effects in rotenone challenged PD rats ([1]; same effects as described for saxagliptin): do the same

liraglutide (HAEGTFTSDVSSYLEGQAAKEFIAWLVRGRG; chains of the INN, looked up) [GLP-1R agonist]
Effects in rat rotenone model of PD [1]: mitigated motor deficits, striatal DA loss, SNc dopaminergic neuronal degeneration and neuroinflammation

N#C[C@@H]1C[C@@H]2C[C@@H]2N1C(=O)[C@@H](N)C12CC3CC(CC(O)(C3)C1)C2 [saxagliptin]
Effects in rat rotenone PD model [1]: preserve TH levels within the SNc and mitigate striatal declines in DA and TH levels

CC#CCn1c(N2CCC[C@@H](N)C2)nc2c1c(=O)n(Cc1nc(C)c3ccccc3n1)c(=O)n2C [linagliptin]
Neural stem cell proliferation after ischemic stroke [2]: augment neural stem cell proliferation

N#C[C@@H]1CCCN1C(=O)CNC12CC3CC(CC(O)(C3)C1)C2 [Vildagliptin]
Effects in rat rotenone PD model [1]: mitigate striatal DA loss, neuroinflammation and motor deficits | Effects in striatum of rat 3NP model of late-stage Huntington's disease [3]: reduce neuronal degeneration and markers of oxidative stress
